From the supplement of paper PMC10307832

Legend:
Experiment in all cases: relative viability (nuclei count vs DMSO), 5 days (fraction); higher = more cells survive
NCI-H1975 = test system: NCI-H1975
Summary of the method: (§1)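 Five library-drug doses in √10 steps were combined with a fixed anchor-drug dose, or a single drug was given alone, by pin tool to lung cancer cell lines in 1536-well plates the day after seeding. Nuclei were stained and counted after 5 days. Relative viability is the nuclei count in treated wells over that in vehicle wells, taken as the median of duplicate plates.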

EPLC-272H = test system: EPLC-272H
Summary of the method: as §1

NCI-H2126 = test system: NCI-H2126
Summary of the method: as §1

NCI-H1755 = test system: NCI-H1755
Summary of the method: as §1

HCC-78 = test system: HCC-78
Summary of the method: as §1

ChaGo-K-1 = test system: ChaGo-K-1
Summary of the method: as §1

NCI-H358 = test system: NCI-H358
Summary of the method: as §1

NCI-H2023 = test system: NCI-H2023
Summary of the method: as §1

HCC-15 = test system: HCC-15
Summary of the method: as §1

HOP-62 = test system: HOP-62
Summary of the method: as §1

NCI-H3122 = test system: NCI-H3122
Summary of the method: as §1

UMC-11 = test system: UMC-11
Summary of the method: as §1

LXF-289 = test system: LXF-289
Summary of the method: as §1

EMC-BAC-2 = test system: EMC-BAC-2
Summary of the method: as §1

COR-L 105 = test system: COR-L 105
Summary of the method: as §1

NCI-H322M = test system: NCI-H322M
Summary of the method: as §1

NCI-H1915 = test system: NCI-H1915
Summary of the method: as §1

NCI-H2085 = test system: NCI-H2085
Summary of the method: as §1

NCI-H441 = test system: NCI-H441
Summary of the method: as §1

NCI-H1666 = test system: NCI-H1666
Summary of the method: as §1

CAL-12T = test system: CAL-12T
Summary of the method: as §1

CC(=O)O[C@@]12CO[C@@H]1C[C@H](O)[C@@]1(C)C(=O)[C@H](O)C3=C(C)[C@@H](OC(=O)[C@H](O)[C@@H](NC(=O)OC(C)(C)C)c4ccccc4)C[C@@](O)([C@@H](OC(=O)c4ccccc4)[C@H]21)C3(C)C [Docetaxel] + CC(=O)Nc1cccc(-n2c(=O)n(C3CC3)c(=O)c3c(Nc4ccc(I)cc4F)n(C)c(=O)c(C)c32)c1 [Trametinib] (partner 0.02 µM)
relative viability (NCI-H1975; first compound 0.0002 µM): 0.386 | relative viability (NCI-H1975; first compound 0.000632 µM): 0.263 | relative viability (NCI-H1975; first compound 0.002 µM): 0.241 | relative viability (NCI-H1975; first compound 0.006325 µM): 0.167 | relative viability (NCI-H1975; first compound 0.02 µM): 0.148 | relative viability (EPLC-272H; first compound 0.0002 µM): 0.32 | relative viability (EPLC-272H; first compound 0.000632 µM): 0.276 | relative viability (EPLC-272H; first compound 0.006325 µM): 0.136 | relative viability (EPLC-272H; first compound 0.02 µM): 0.0951 | relative viability (NCI-H2126; first compound 0.0002 µM): 0.543 | relative viability (NCI-H2126; first compound 0.000632 µM): 0.471 | relative viability (NCI-H2126; first compound 0.002 µM): 0.403 | relative viability (NCI-H2126; first compound 0.006325 µM): 0.31 | relative viability (NCI-H1755; first compound 0.0002 µM): 0.766 | relative viability (NCI-H1755; first compound 0.000632 µM): 0.743 | relative viability (NCI-H1755; first compound 0.002 µM): 0.555 | relative viability (NCI-H1755; first compound 0.006325 µM): 0.415 | relative viability (NCI-H1755; first compound 0.02 µM): 0.381 | relative viability (HCC-78; first compound 0.0002 µM): 0.751 | relative viability (HCC-78; first compound 0.000632 µM): 0.73 | relative viability (HCC-78; first compound 0.002 µM): 0.502 | relative viability (HCC-78; first compound 0.006325 µM): 0.446 | relative viability (HCC-78; first compound 0.02 µM): 0.371 | relative viability (ChaGo-K-1; first compound 0.0002 µM): 0.871 | relative viability (ChaGo-K-1; first compound 0.000632 µM): 0.815 | relative viability (ChaGo-K-1; first compound 0.002 µM): 0.443 | relative viability (ChaGo-K-1; first compound 0.006325 µM): 0.323 | relative viability (ChaGo-K-1; first compound 0.02 µM): 0.157 | relative viability (NCI-H358; first compound 0.0002 µM): 0.167 | relative viability (NCI-H358; first compound 0.000632 µM): 0.138 | relative viability (NCI-H358; first compound 0.002 µM): 0.124 | relative viability (NCI-H358; first compound 0.006325 µM): 0.0884 | relative viability (NCI-H358; first compound 0.02 µM): 0.083 | relative viability (NCI-H2023; first compound 0.0002 µM): 0.498 | relative viability (NCI-H2023; first compound 0.000632 µM): 0.521 | relative viability (NCI-H2023; first compound 0.002 µM): 0.141 | relative viability (NCI-H2023; first compound 0.006325 µM): 0.127 | relative viability (NCI-H2023; first compound 0.02 µM): 0.0628 | relative viability (HCC-15; first compound 0.0002 µM): 0.401 | relative viability (HCC-15; first compound 0.000632 µM): 0.313 | relative viability (HCC-15; first compound 0.002 µM): 0.193 | relative viability (HCC-15; first compound 0.006325 µM): 0.247 | relative viability (HCC-15; first compound 0.02 µM): 0.159 | relative viability (HOP-62; first compound 0.0002 µM): 0.328 | relative viability (HOP-62; first compound 0.000632 µM): 0.446 | relative viability (HOP-62; first compound 0.002 µM): 0.355 | relative viability (HOP-62; first compound 0.006325 µM): 0.32 | relative viability (NCI-H3122; first compound 0.0002 µM): 0.219 | relative viability (NCI-H3122; first compound 0.000632 µM): 0.215 | relative viability (NCI-H3122; first compound 0.002 µM): 0.194 | relative viability (NCI-H3122; first compound 0.006325 µM): 0.194 | relative viability (NCI-H3122; first compound 0.02 µM): 0.128 | relative viability (UMC-11; first compound 0.0002 µM): 0.62 | relative viability (UMC-11; first compound 0.000632 µM): 0.788 | relative viability (UMC-11; first compound 0.002 µM): 0.358 | relative viability (UMC-11; first compound 0.006325 µM): 0.216 | relative viability (UMC-11; first compound 0.02 µM): 0.147 | relative viability (LXF-289; first compound 0.0002 µM): 0.648 | relative viability (LXF-289; first compound 0.000632 µM): 0.673 | relative viability (LXF-289; first compound 0.002 µM): 0.335 | relative viability (LXF-289; first compound 0.006325 µM): 0.18 | relative viability (LXF-289; first compound 0.02 µM): 0.109 | relative viability (EMC-BAC-2; first compound 0.0002 µM): 0.874 | relative viability (EMC-BAC-2; first compound 0.000632 µM): 0.76 | relative viability (EMC-BAC-2; first compound 0.002 µM): 0.554 | relative viability (EMC-BAC-2; first compound 0.006325 µM): 0.476 | relative viability (EMC-BAC-2; first compound 0.02 µM): 0.385 | relative viability (COR-L 105; first compound 0.0002 µM): 0.399 | relative viability (COR-L 105; first compound 0.000632 µM): 0.445 | relative viability (COR-L 105; first compound 0.002 µM): 0.428 | relative viability (COR-L 105; first compound 0.006325 µM): 0.339 | relative viability (COR-L 105; first compound 0.02 µM): 0.392 | relative viability (NCI-H322M; first compound 0.0002 µM): 0.554 | relative viability (NCI-H322M; first compound 0.000632 µM): 0.507 | relative viability (NCI-H322M; first compound 0.002 µM): 0.441 | relative viability (NCI-H322M; first compound 0.006325 µM): 0.524 | relative viability (NCI-H322M; first compound 0.02 µM): 0.441 | relative viability (NCI-H1915; first compound 0.0002 µM): 0.3 | relative viability (NCI-H1915; first compound 0.000632 µM): 0.288 | relative viability (NCI-H1915; first compound 0.002 µM): 0.228 | relative viability (NCI-H1915; first compound 0.006325 µM): 0.151 | relative viability (NCI-H1915; first compound 0.02 µM): 0.0803 | relative viability (NCI-H2085; first compound 0.0002 µM): 0.503 | relative viability (NCI-H2085; first compound 0.000632 µM): 0.513 | relative viability (NCI-H2085; first compound 0.002 µM): 0.324 | relative viability (NCI-H2085; first compound 0.006325 µM): 0.329 | relative viability (NCI-H2085; first compound 0.02 µM): 0.199 | relative viability (NCI-H441; first compound 0.0002 µM): 0.389 | relative viability (NCI-H441; first compound 0.000632 µM): 0.255 | relative viability (NCI-H441; first compound 0.002 µM): 0.202 | relative viability (NCI-H441; first compound 0.006325 µM): 0.187 | relative viability (NCI-H441; first compound 0.02 µM): 0.144 | relative viability (NCI-H1666; first compound 0.0002 µM): 0.846 | relative viability (NCI-H1666; first compound 0.000632 µM): 0.695 | relative viability (NCI-H1666; first compound 0.002 µM): 0.645 | relative viability (NCI-H1666; first compound 0.006325 µM): 0.771 | relative viability (NCI-H1666; first compound 0.02 µM): 0.521 | relative viability (CAL-12T; first compound 0.0002 µM): 0.294 | relative viability (CAL-12T; first compound 0.000632 µM): 0.267 | relative viability (CAL-12T; first compound 0.002 µM): 0.229 | relative viability (CAL-12T; first compound 0.006325 µM): 0.15 | relative viability (CAL-12T; first compound 0.02 µM): 0.119
